Values of other authors, collected in publication PMC10761933, “Acquired and intrinsic resistance to vemurafenib in BRAF^V600E ‐driven melanoma brain metastases” (FEBS Open Bio, 2023).

How the values were obtained:
A375 cells = settings: read-out: IC50 against A375 cells; cited from earlier work
[1] = WT mice; cited from earlier work
[2] = mice; stated without reference; cited from earlier work
[3] = system: melanoma brain metastases; settings: MBM patients, treatment alone; cited from earlier work

| SMILES | IC50 (A375 cells) [nM] | brain–plasma ratio [1] | t max of oral elacridar [2] [h] | median overall survival [3] [months] |
| --- | --- | --- | --- | --- |
| COC(=O)N[C@@H](C)CNc1nccc(-c2cn(C(C)C)nc2-c2cc(Cl)cc(NS(C)(=O)=O)c2F)n1 [encorafenib] | 4 | roughly 0.004 |  |  |
| COc1cc2c(cc1OC)CN(CCc1ccc(NC(=O)c3cccc4c(=O)c5cccc(OC)c5[nH]c34)cc1)CC2 [elacridar] |  |  | ~4 |  |
| CC(C)(C)c1nc(-c2cccc(NS(=O)(=O)c3c(F)cccc3F)c2F)c(-c2ccnc(N)n2)s1 [dabrafenib] | 4 | approximately 0.1 |  | 7 |
